# Test results from patent US12611423B2, “Medical use of tafoxiparin” (DILAFOR AB, priority 2022, dated 2026).
# Legend:
# factor Xa = assay: antifactor Xa activity of tafoxiparin; format: biochemical; conditions: definition of tafoxiparin
# [1] = anticoagulant activity (descriptive)
# Chain of factor Xa (P01008 33-464 partner): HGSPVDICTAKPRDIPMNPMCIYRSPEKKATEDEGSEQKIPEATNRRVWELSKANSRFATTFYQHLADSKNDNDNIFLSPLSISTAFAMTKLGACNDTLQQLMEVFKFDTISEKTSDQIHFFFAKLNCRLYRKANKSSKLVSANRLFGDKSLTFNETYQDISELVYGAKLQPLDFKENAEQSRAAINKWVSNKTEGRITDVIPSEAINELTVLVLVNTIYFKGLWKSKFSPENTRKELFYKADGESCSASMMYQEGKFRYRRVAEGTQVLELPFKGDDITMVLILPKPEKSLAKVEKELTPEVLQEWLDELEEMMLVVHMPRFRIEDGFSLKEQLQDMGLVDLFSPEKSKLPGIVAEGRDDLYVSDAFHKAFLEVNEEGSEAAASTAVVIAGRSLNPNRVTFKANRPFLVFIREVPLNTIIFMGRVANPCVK
# Chain of factor Xa (P00742 235-488 limits assumed, further chain): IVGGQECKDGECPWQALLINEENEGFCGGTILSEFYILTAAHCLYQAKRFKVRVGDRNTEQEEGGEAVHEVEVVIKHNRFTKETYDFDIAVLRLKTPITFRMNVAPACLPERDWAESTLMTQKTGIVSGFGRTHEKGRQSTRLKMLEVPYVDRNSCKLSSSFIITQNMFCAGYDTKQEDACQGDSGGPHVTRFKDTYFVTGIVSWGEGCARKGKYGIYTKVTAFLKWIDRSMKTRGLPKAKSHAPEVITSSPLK
substance,measurement,setting,value
tafoxiparin,antifactor Xa activity,factor Xa,less than 10 IU/mg
same,anticoagulant activity,[1],essentially no anticoagulant activity
